Assay results from ChEMBL document CHEMBL3774318, “Synthesis and antiproliferative activity of goniobutenolides A and B, 5-halogenated crassalactone D derivatives and the corresponding 7-epimers” (Eur J Med Chem, 2016).
pIC50: −log10 of the molar value.

Tests used:
[1] = Cytotoxicity against human Jurkat T cells assessed as cell growth inhibition after 72 hrs by MTT assay; assay type: functional, cell-based
[2] = Cytotoxicity against human HL60 cells assessed as cell growth inhibition after 72 hrs by MTT assay; assay type: functional, cell-based; conditions: HL-60, 72 h

## COc1cccc2c1C(=O)c1c(O)c3c(c(O)c1C2=O)C[C@@](O)(C(=O)CO)C[C@@H]3O[C@H]1C[C@H](N)[C@H](O)[C@H](C)O1 [DOXORUBICIN]
[1]
  pIC50: 7.52
[2]
  pIC50: 6.04
